In general, Kd refers to the free concentration of one partner at which half of the binding sites on the other are occupied at equilibrium, for simple one-to-one binding. As usually defined, the IC50 is the concentration that gives 50% inhibition. As usually defined, the inhibition is the share of the control response that was lost under treatment.

SMILES strings stand for the structures. Read-outs that look alike come from different tables or passages of the source.

The target of experiment [1] is T1, AtOASS (O-acetyl serine sulfhydrylase from Arabidopsis thaliana) (Arabidopsis thaliana, UniProt P47998).
T1 construct: GST (N, cleaved yes); made in house; host or cells: E. coli Rosetta (DE3)
Briefly: Isothermal titration calorimetry (ITC) binding to OASS. As to conditions: OASS titrated into compound in ITC cell; single binding model. The source says: To evaluate the ability of the molecules to bind AtOASS (O-acetyl serine sulfhydrylase from Arabidopsis thaliana), the protein was placed in the ITC syringe and was titrated with the molecules that were placed in the ITC cell (see Examples section below). The direct dissociation binding constant (Kd) was then extracted from the binding curve using a single binding model, wherein a low Kd value corresponds to a stronger binding affinity.
To evaluate the binding of the small molecules to the enzyme OASS, the purified protein was placed in a 6-8 MWCO dialysis bag in 30 mM phosphate buffer, 30 mM NaCl, 1 mM TCEP, and 5% dimethyl sulfoxide. Sequential buffer exchange dialyses were executed for 12 hours each at 4° C. until dilution of >10,000 was achieved. Before the execution of the ITC binding experiment, the OASS was placed in the ITC syringe at a concentration of 400 μM and each of the small molecules was dissolved in the same dialysis buffer to a final concentration of 40 μM in the ITC cell. ITC experiments were conducted by titrating the OASS to the compounds in the cell. The ITC binding constant was evaluated using the build-in analysis software.
The designed de-novo herbicidal compounds were synthesized and evaluated for their in vitro and in planta activity. After dissolving the molecules to a stock of 50 mM in DMSO, binding and competition with the SAT-derived peptides were evaluated using ITC and FP. ITC measures the direct heat change occurring due to the interaction of a pair of molecules. ITC has certain advantages, such as the capability to detect a relatively broad range of binding affinities, being a label-free method, and providing a wide set of interaction parameters, such as affinity, stoichiometry, enthalpy, and entropy of binding. To evaluate the ability of the molecules to bind AtOASS, the protein was placed in the ITC syringe and was titrated with the molecules that were placed in the ITC cell. The direct dissociation binding constant (Kd) was then extracted from the binding curve using a single binding model. Two consecutive experiments were combined using the built in ITC module to enable better quantification. A low Kd value corresponds to a stronger binding affinity.
In general terms: Isothermal titration calorimetry measures the heat released or taken up as one component is titrated into another.

Experiment [2] deals with T2, OASS-SAT complex (AtOASS with SAT-derived peptide) (Arabidopsis thaliana, UniProt P47998).
T2 construct: GST (N, cleaved yes); made in house; host or cells: E. coli Rosetta (DE3)
Briefly: Fluorescence polarization (FP) competition with FITC-labeled SAT-derived peptide bound to OASS. As to conditions: competition with FITC-SAT peptide 200 nM, OASS 2.2 μM; for IC50: single site inhibition model. Format: binding. As for the experimental part: Molecules were also tested for their ability to compete with the OASS binding to the SAT-derived peptide via a fluorescence polarization (FP) competition assay wherein the N-terminus labeled peptide was incubated with the AtOASS (see Examples section below). High FP values correspond to the peptide-bound state (low molecule concentrations) and low FP values correspond to the peptide-free state (low FP values). To extract the IC50, the FP data were fitted to a single site inhibition model in PRISM by GraphPad Software. The corresponding IC50 values were extracted, whereas low IC50 values correspond to molecule that better competes with the peptide binding to AtOASS. Fluorescence polarization (FP) measurements were made on samples arrayed in 96-well plates by using BioTek H1 Synergy instrument equipped with FP module. […] The peptide in a concentration of 200 nM was incubated with OASS at a concentration of 2.2 μM in each well. Variable concentrations of each molecule starting from 100 μM down to 0.048 μM were added to evaluate the ability of each molecule to compete off the FITC labeled peptide bound to OASS. Fluorescence experiments were executed with an Em/Exc wavelengths of 480/520 nm. All measurements were done in triplicate. Experimental polarization data from simple and competitive binding experiments were fitted using GraphPad Prism, with error bars representing SD. Molecules were also tested for their ability to compete with the OASS binding to the SAT-derived peptide via a fluorescence polarization (FP) competition assay. The N-terminus labeled peptide was incubated with the AtOASS in each of the wells in a 96-well plate. Various concentrations of the molecules were added and the FP values were recorded. High FP values correspond to the peptide-bound state (low molecule concentrations) and low FP values correspond to the peptide-free state (low FP values). To extract the IC50, the FP data were fitted to a single site inhibition model in graphpad prism. The corresponding IC50 values were extracted. Low IC50 values correspond to molecule that better competes with the peptide binding to AtOASS.

The subject of another experiment is Amaranthus palmeri. Briefly: Pre-emergence assay in pots. Format: in vivo. As to conditions: pots sprayed with 2 ml, 5 mM, monitored 21 days. As to the method: (§1) 7×7 cm pots were prepared with 20% soil and 80% sand. Trifolium alexandrium (16 seeds), Lolium rigidum (25 seeds), Solanum nigrum (25 seeds), Amaranthus palmeri (40 seeds) or Sinapis arvensis (12 seeds) were sowed and 2 cm of strained sand was used to cover the seeds. The pots were placed in the growth room under a lighting regime of 16 hours of light and 8 hours in the dark at 23° C. The day after (except for the Solanum and Amaranthus 4-5 days after), the pots were sprayed in a chemical hood at a 45° angle with 2 ml spray solution containing 1:10 acetone or phosphate buffer dissolved active ingredient in tap water to a final concentration of 5 mM. Every 2-3 days the pots were irrigated with tap water.
(§2) Pre-emergence herbicidal activity was determined by monitoring plant growth in pots. Molecules were dissolved at the indicated concentrations below and volume of 2 ml was sprayed onto the soil, and plant growth was monitored for 21 days.

Experiment [3] has as its system Arabidopsis thaliana. Briefly: Root elongation in plates (in planta root elongation assay). Format: in vivo. As to conditions: 168 h, A. thaliana on MS medium plates, 7 days, read-out: Root-growth inhibition %. As for the experimental part: 6-well plates were prepared in a biological hood with sterile half Murashige and Skoog mineral medium (MS; Duchefa, Haarlem, Netherlands) containing 1% sucrose (w/v), pH 5.8. Tested molecules were dissolved in 50 mM DMSO and diluted to various concentrations 1,000-fold greater than the final desired concentration the MS medium maintaining a final concentration of 0.1% DMSO. MS medium with 0.1% DMSO was used as a negative control. After 7 days the plates were scanned and the root length was calculated using the imageJ software. […] Further sterilization was done by washing the seeds with 50% hypochlorite and 0.2% Triton x-100 for 10 minutes followed by five cycles of washing with sterile water. Six seeds were placed in each well, and the plates were covered and sealed with parafilm. Plates were placed vertically at 4° C. for two days and then transferred to a growth chamber for seven days (22-24° C.) at day/light cycles of 16/8 hours. Following the in vitro evaluation, selected molecules were tested for their ability to inhibit A. thaliana root elongation on agar plates. Seeds were plated on medium containing the molecules dissolved in the indicated concentrations and root length was measured after 6 or 7 days when the root in the non-treated plate reached the end of the well.

The subject of a further experiment is Trifolium alexandrium. Briefly: Pre-emergence assay in pots. Format: in vivo. As to conditions: pots sprayed with 2 ml, 5 mM, monitored 21 days. As for the experimental part:
as §1, §2

In the next experiment the test system is Sinapis arvensis. Briefly: Pre-emergence assay in pots. Format: in vivo. As to conditions: pots sprayed with 2 ml, 5 mM, monitored 21 days. As to the method:
as §1, §2

In another experiment the test system is Solanum nigrum. Briefly: Pre-emergence assay in pots. Format: in vivo. As to conditions: pots sprayed with 2 ml, 5 mM, monitored 21 days. As to the method: as §1, §2
Experiment [4] concerns Arabidopsis thaliana. Briefly: L-cysteine recovery root elongation assay. Format: in vivo. As to conditions: for IC50: Arabidopsis thaliana, read-out: IC50 of A. thaliana growth inhibition. As to the method: For the L-cysteine recovery root elongation assay, 6-well plates were prepared in a biological hood with sterile half Murashige and Skoog mineral medium (MS; Duchefa, Haarlem, Netherlands) containing 1% sucrose (w/v), pH 5.8. A stock of 10 mM L-cysteine in DDW was prepared and diluted to a final concentration of 0.03 mM into the MS medium in the presence of 25 to 1.56 μM of PJL 109. The MS medium maintained a final concentration of 0.1% DMSO. MS medium with 0.1% DMSO and 0.03 mM L-cysteine was used as a negative control. After 7 days the plates were scanned and the root length was calculated using the imageJ software.
Arabidopsis thaliana seeds were washed with 70% ethanol for 1 minute and then with sterile water. Further sterilization was done by washing the seeds with 50% hypochlorite and 0.2% Triton x-100 for 10 minutes followed by five cycles of washing with sterile water. Six seeds were placed in each well, and the plates were covered and sealed with parafilm. Plates were placed vertically at 4° C. for two days and then transferred to a growth chamber for seven days (22-24° C.) at day/light cycles of 16/8 hours.

T2 sequence (P47998 whole entry, one chain of several): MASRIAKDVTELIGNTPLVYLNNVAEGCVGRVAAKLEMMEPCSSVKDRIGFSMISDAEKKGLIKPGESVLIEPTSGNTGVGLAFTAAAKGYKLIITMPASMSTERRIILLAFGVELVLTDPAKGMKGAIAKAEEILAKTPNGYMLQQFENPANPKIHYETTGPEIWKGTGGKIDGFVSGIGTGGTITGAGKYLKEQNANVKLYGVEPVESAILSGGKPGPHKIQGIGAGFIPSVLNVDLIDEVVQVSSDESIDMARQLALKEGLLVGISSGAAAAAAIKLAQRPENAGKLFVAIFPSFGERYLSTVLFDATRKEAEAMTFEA
T1 sequence (P47998 whole entry): as the sequence (P47998 whole entry, one chain of several) above

Consider `O=C(O)c1cc(F)ccc1NS(=O)(=O)c1cnc(-c2ccccc2)s1` [PJL-47], for which the Kd in experiment [1] was determined as 6 µM. In experiment [2], the FP % inhibition amounted to 16% and the half-inhibitory concentration (IC50) came out at 68 µM. In the experiment with Amaranthus palmeri, the “Pre-emergence assay Germination inhibition on (%)” value is recorded as 66% and the “Pre-emergence assay Growth inhibition on (%)” value stood at 20%. The inhibition at 50 µM with Arabidopsis thaliana [3] is 88%.
Consider `COc1ccc(-c2csc(NC(=O)c3ccccc3-c3ccccc3C(=O)O)n2)cc1` [PJL-61], for which the Kd in experiment [1] was 0.4 µM. Further, in experiment [2], the FP % inhibition came out at 43% and the IC50 was 4.7 µM. For the same molecule, in the experiment on Trifolium alexandrium, the “Pre-emergence assay Germination inhibition on (%)” value stood at 70% and the “Pre-emergence assay Growth inhibition on (%)” value was 60%. In addition, in the experiment with Amaranthus palmeri, the “Pre-emergence assay Germination inhibition on (%)” value came out at 33% and the “Pre-emergence assay Growth inhibition on (%)” value was found to be 0%. The inhibition at 50 µM with Arabidopsis thaliana [3] was found to be 95%.
In the case of `COc1ccc(C(=O)O)c(NS(=O)(=O)c2cnc(-c3ccc(F)cc3)s2)c1` [PJL-79], the Kd in experiment [1] stood at 7.1 µM. Also, in experiment [2], the FP % inhibition turned out to be 18% and the IC50 came to 55 µM. Moreover, in the experiment on Sinapis arvensis, the “Pre-emergence assay Germination inhibition on (%)” value is given as 95% and the “Pre-emergence assay Growth inhibition on (%)” value is 90%. Also, the inhibition at 50 µM in the experiment with Arabidopsis thaliana [3] was 97%.
As to `O=C(O)c1ccccc1-c1ccccc1C(=O)Nc1nc(-c2ccc(Cl)cc2Cl)cs1` [PJL-109], binding in experiment [1] was put at a Kd of 0.07 µM. In addition, the FP % inhibition in experiment [2] was 48%. For the same molecule, the IC50 is 5.4 µM in experiment [2], 1.7 µM in the experiment on Arabidopsis thaliana [4] (0 mM L-cysteine (no external addition of cysteine)) and 4.9 µM in the experiment on Arabidopsis thaliana [4] (0.03 mM L-cysteine in the medium). Also, in the experiment with Solanum nigrum, the “Pre-emergence assay Germination inhibition on (%)” value came to 63%. The “Pre-emergence assay Growth inhibition on (%)” value with Solanum nigrum is 0%. Further, the inhibition at 50 µM in the experiment with Arabidopsis thaliana [3] turned out to be 89%. In addition, in the experiment with Arabidopsis thaliana [4] (0.03 mM L-cysteine on agar plates, dose-response, result in words), the “effect of added cysteine on the inhibition by the compound” value is reported as “partially reverses the germination inhibition effect”.
For `COc1ccc(-c2csc(NC(=O)c3ccccc3-c3ccccc3C(=O)O)n2)c(Cl)c1` [PJL-116], in experiment [1], the Kd is 0.5 µM. Further, in experiment [2], the FP % inhibition is 41% and the IC50 is 3.6 µM. Moreover, in the experiment with Trifolium alexandrium, the “Pre-emergence assay Germination inhibition on (%)” value was found to be 75% and the “Pre-emergence assay Growth inhibition on (%)” value is on record as 80%. In addition, the inhibition at 50 µM in the experiment on Arabidopsis thaliana [3] is 92%.
`COc1ccc(C(=O)O)c(-c2ccccc2C(=O)Nc2nc(-c3ccc(Cl)cc3Cl)cs2)c1` [PJL-118] returned a dissociation constant Kd in experiment [1] of 2.3 µM. Besides, in experiment [2], the FP % inhibition was found to be 43% and the IC50 came to 5.99 µM. Moreover, the inhibition at 50 µM in the experiment on Arabidopsis thaliana [3] came to 47%.
In the same order, the values of `COc1ccc(-c2csc(NC(=O)c3cc(C)ccc3-c3ccccc3C(=O)O)n2)cc1` [PJL-126] are 3 µM, 58%, 2.1 µM and 93%.
`COc1ccc(-c2csc(NC(=O)c3ncccc3-c3ccccc3C(=O)O)n2)cc1` [PJL-127]: in experiment [1], the affinity, expressed as Kd, was 7.6 µM. Further, in experiment [2], the FP % inhibition worked out at 38% and the IC50 worked out at 15.3 µM. Further, the inhibition at 50 µM with Arabidopsis thaliana [3] came out at 100%.
In the same order, the values of `CC(C)n1nnc(-c2ccc(O)c(NC(=O)Cc3ccccc3C(=O)O)c2)n1` [PJL-208] are 19.8 µM, 16%, 97 µM and 0%.
In the same order, the values of `O=C(O)c1cccc(NC2=C(Cl)C(=O)N(c3cc(Cl)ccc3Cl)C2=O)c1` [PJL-211] are 11.6 µM, 17%, 63.9 µM and 72%.
`COc1ccc(NC(=O)c2ccc(NS(=O)(=O)c3cc(C(=O)O)ccc3OC)cc2)cc1` [PJS-31] gave a Kd in experiment [1] of 5.6 µM. For the same molecule, in experiment [2], the FP % inhibition is 11% and the IC50 was 225 µM. In addition, the inhibition at 50 µM in the experiment on Arabidopsis thaliana [3] is 0%.
In the same order, the values of `O=C(O)c1cc2c(c(S(=O)(=O)Nc3ccc(OCc4ccccn4)c(Cl)c3)c1)CCC2` [PJS-39] are 7.5 µM, 14%, 72 µM and 2.3%.
In the same order, the values of `O=C(O)c1ccccc1-c1ccccc1C(=O)Nc1cccc(C(F)(F)F)c1` [PJS-212] are 8.11 µM, 34%, 10.6 µM and 34%.

The values above are taken from patent US20250008959A1, “HERBICIDES AND USE THEREOF” (Projini Agchem LTD, priority 2021, published 2025).
